Laboratory results as given in patent US12704459B2, “Methods, compositions, and kits for assay signal amplification” (MESO SCALE TECHNOLOGIES, LLC., priority 2021, dated 2026).

What was measured:
[1] = test system: anti-SULFO-TAG antibody clones; test: Competition assay: ligands SM, Bpy or A against TAG compound binding; set-up: species or system mouse; conditions: 2 μM of ligand
Description: FIGS. 20A-20I show the results of exemplary competitive binding assays between the TAG compounds shown in FIG. 18A and the SM, Bpy, or A ligands shown in FIG. 18A, with the anti-SULFO-TAG antibody clones described in Example 4. The graphs show the remaining ECL signal after anti-SULFO-TAG antibodies were exposed to 2 μM of each ligand, then varying concentrations of each of the TAG compounds. Lower ECL signal is indicative of stronger binding affinity to a particular ligand. The three panels in the right-most column show ECL signals from exposing the anti-SULFO-TAG antibody clones to 10 nM of the TAG compounds alone (without ligands).
To further verify the role of ligands in antibody recognition, the antibodies were coated on MSD® 96-well Small Spot Streptavidin plates and first exposed to 2 μM of ligands SM, Bpy, or A, then exposed to different concentrations of the TAG compounds as a competition assay.

[2] = ECL generation of free TAG compounds spiked into ECL read buffer; assay type: physicochemical; conditions: free TAG compound in ECL read buffer, 96-well bare carbon plates
Description: An epitope recognition study was performed on the eleven anti-SULFO-TAG antibody clones described in Example 4. To study the epitope recognition of these antibody clones, four organometallic Ru^2+ compounds (“TAG compounds”) with varying numbers of sulfomethyl-bipyridine (“SM”) or bipyridine (“Bpy”) ligands as shown in FIG. 18A were prepared. The SULFO-TAG is denoted as Ru^+2(SM)2A1, which includes an acid ligand (“A”) in one of the Bpy groups and is more similar in structure with Bpy than SM. ECL generation from each TAG compound was verified by spiking the TAG compounds into ECL read buffer, and the ECL signal from each free TAG compound was measured on 96-well bare carbon plates. […] The Ru(Bpy)3 ECL signal, when normalized for concentration, would be 248,576 ECL units, similar to the other TAG compounds.

Compound: c1ccc(-c2ccccn2)nc1 [Bpy, bipyridine]
- ligand binding / competition with antibody binding to Ru^+2(SM)3 and SULFO-TAG [1]: unable to significantly outcompete antibody binding

Compound: [Ru+2].c1ccc(-c2ccccn2)nc1.c1ccc(-c2ccccn2)nc1.c1ccc(-c2ccccn2)nc1 [Ru(Bpy)3]
- ECL signal, normalized for concentration [2]: 248,576 ECL units

Compound: sulfomethyl-bipyridine [SM]
- ligand binding / competition with antibody binding to Ru^+2(SM)3 and SULFO-TAG [1]: strongest binding
